Test results as given in ChEMBL document CHEMBL1201862, “PubChem BioAssay data set” (2004).
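Method: 48-hour compound exposure of cells in 96-well plates, five concentrations, linear interpolation of endpoints. GI50 is the concentration that inhibits growth by half.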 Activity calls are given as the source filed them. Rule as the data show it: active = GI50 up to about 1.1 µM and inactive = higher.

Columns and labels:
Assay in all cases: NCI tumour cell line growth inhibition, 48 h
[1] = tested on: HT-29
[2] = tested on: HOP-92
[3] = tested on: SF-268
[4] = tested on: RPMI-8226
[5] = tested on: OVCAR-8
[6] = tested on: MOLT-4
[7] = tested on: SW-620
[8] = tested on: KM12
[9] = tested on: SNB-19
[10] = tested on: A549
[11] = tested on: A498
[12] = tested on: NCI-H23
[13] = tested on: OVCAR-5
[14] = tested on: SF-295
[15] = tested on: UACC-257
[16] = tested on: SK-MEL-2
[17] = tested on: LOX IMVI
[18] = tested on: CAKI-1
[19] = tested on: EKVX
[20] = tested on: Malme-3M

Measured: GI50

COc1ccc(/C=N/n2c(C)nc3c(sc(=S)n3-c3ccccc3)c2=O)cc1
inactive: [1] 37.2 µM | [2] 40.7 µM | [3] 44.8 µM | [4] 27 µM | [5] > 100 µM | [6] 34.4 µM | [7] > 100 µM | [8] > 100 µM | [9] 82.4 µM | [10] > 100 µM | [11] 36 µM | [12] > 100 µM | [13] > 100 µM | [14] 37.2 µM | [15] 62.7 µM

Cc1nnc(Nc2ccc(Cl)cc2)o1
inactive: [1] > 10 µM | [3] > 10 µM | [5] > 10 µM | [16] > 10 µM | [17] > 10 µM | [7] > 10 µM | [18] > 10 µM | [8] > 10 µM | [9] > 10 µM | [10] > 10 µM | [11] > 10 µM | [12] > 10 µM | [14] > 10 µM | [19] > 10 µM | [15] > 10 µM | [20] > 10 µM

COc1ccc(C(CC(=O)c2ccc(O)cc2)C(C(=O)c2ccc(O)cc2)C(c2ccc(OC)cc2)C2C(=O)NC(=S)NC2=O)cc1 (stereo not drawn)
inactive: [1] 27 µM | [2] 46.9 µM | [3] 15.7 µM | [4] 22.6 µM | [5] 24.8 µM | [16] 29.8 µM | [17] 17.9 µM | [6] 37.7 µM | [7] 23.1 µM | [8] 16.6 µM | [9] 21.8 µM | [10] 21.9 µM | [11] 38.9 µM | [13] 20.7 µM | [14] 20 µM | [15] 17.5 µM

O=C1CCC(c2ccccc2)=NN1c1nsc2ccccc12
inactive: [1] > 100 µM | [2] > 100 µM | [3] > 100 µM | [4] 70.1 µM | [5] > 100 µM | [16] > 100 µM | [17] > 100 µM | [6] 60 µM | [7] > 100 µM | [8] > 100 µM | [9] > 100 µM | [10] > 100 µM | [12] > 100 µM | [13] > 100 µM | [19] 82.6 µM | [15] > 100 µM

Cc1cc2c(ccc[n+]2[O-])[n+]([O-])c1
inactive: [1] > 100 µM | [2] > 100 µM | [3] > 100 µM | [4] > 100 µM | [5] > 100 µM | [16] > 100 µM | [6] > 100 µM | [7] > 100 µM | [18] > 100 µM | [8] > 100 µM | [9] > 100 µM | [10] > 100 µM | [12] > 100 µM | [13] > 100 µM | [14] > 100 µM | [19] > 100 µM | [15] > 100 µM | [20] > 100 µM

C=CC(=O)NC(O)(C(=O)OCC)C(F)(F)F (stereo not drawn)
inactive: [1] > 100 µM | [2] > 100 µM | [3] > 100 µM | [4] > 100 µM | [5] > 100 µM | [16] > 100 µM | [17] > 100 µM | [6] > 100 µM | [7] > 100 µM | [18] > 100 µM | [8] > 100 µM | [9] > 100 µM | [10] > 100 µM | [12] > 100 µM | [13] > 100 µM | [14] > 100 µM | [19] > 100 µM | [15] > 100 µM | [20] > 100 µM

COc1cc(C2C(=O)C(Cl)N2Nc2nc(C)cc(O)n2)cc(OC)c1OC (stereo not drawn)
inactive: [1] 23.8 µM | [2] 16.9 µM | [3] 7.01 µM | [4] > 10 µM | [5] 17.1 µM | [16] 11.2 µM | [17] 10.5 µM | [6] 10.6 µM | [7] 22.2 µM | [8] 19 µM | [9] 30.4 µM | [10] 27.9 µM | [12] 15.4 µM | [13] 33 µM | [19] 33.3 µM | [15] 22.5 µM

CC(SC(=S)N1CCOCC1)C(=O)Nc1nnc(-c2ccc(Cl)cc2)o1 (stereo not drawn)
inactive: [1] 36.9 µM | [2] > 100 µM | [3] 44.3 µM | [4] 23.2 µM | [5] 42.2 µM | [16] 31.8 µM | [17] 28.8 µM | [6] 16.1 µM | [7] 42.6 µM | [9] 40 µM | [10] 34.5 µM | [11] 60.5 µM | [12] 50.2 µM | [13] 48.6 µM | [15] 46.1 µM | [20] > 100 µM

O=C(N/N=C/C=C/c1ccccc1)[C@H](O)[C@@H](O)C(=O)N/N=C/C=C/c1ccccc1
inactive: [3] > 100 µM | [4] > 100 µM | [5] > 100 µM | [16] > 100 µM | [17] > 100 µM | [6] > 100 µM | [7] > 100 µM | [8] > 100 µM | [9] > 100 µM | [10] > 100 µM | [11] > 100 µM | [12] > 100 µM | [13] > 100 µM | [14] > 100 µM | [19] > 100 µM | [15] > 100 µM | [20] > 100 µM

O=C1CN2C(Cl)(Cl)C2(c2ccccc2)c2cc(Cl)ccc2N1CC1CC1 (stereo not drawn)
inactive: [1] 17.3 µM | [2] 12.3 µM | [3] 29.3 µM | [4] 37.2 µM | [5] 14.6 µM | [16] 17.3 µM | [17] 17.3 µM | [6] 24 µM | [7] 29.6 µM | [18] 23.3 µM | [8] 16.6 µM | [12] 25.2 µM | [13] 37.4 µM | [14] 9.46 µM | [19] 31.8 µM | [15] 18.9 µM | [20] 17.3 µM

O=C1C=CC=C/C1=C1/SC(c2ccccc2)=C(O)N1c1ccccc1
inactive: [1] > 100 µM | [2] > 100 µM | [3] > 100 µM | [5] > 100 µM | [16] > 100 µM | [7] > 100 µM | [18] > 100 µM | [8] > 100 µM | [9] > 100 µM | [10] > 100 µM | [12] > 100 µM | [13] > 100 µM | [14] > 100 µM | [19] > 100 µM | [15] > 100 µM | [20] > 100 µM

CCN(CC)C(=O)c1cc(OC(C)C)ccc1-c1c(C)cc(OC(C)C)c(OC)c1OC
inactive: [1] 38 µM | [3] > 100 µM | [4] 24.2 µM | [5] 58.5 µM | [16] 46.7 µM | [17] 58.9 µM | [6] 25.5 µM | [7] 98.4 µM | [18] 84.5 µM | [8] 57.8 µM | [9] 79.1 µM | [10] 48.6 µM | [12] 60 µM | [13] > 100 µM | [19] 60.7 µM | [20] 44 µM
